Reference: publication PMC6010130, “Inhibition of Leishmania infantum trypanothione reductase by diaryl sulfide derivatives” (Journal of Enzyme Inhibition and Medicinal Chemistry, 2017)

Columns and labels:
[1] = target: T1, trypanothione reductase (TR) (Leishmania infantum, UniProt A4HSF7); test: X-ray crystal structure ([…] Å); assay type: binding
T1 construct: gene TRYR

[2] = target: T1, trypanothione reductase (TR); test: X-ray crystal structure ([…] Å, soaked oxidized TR); Ki from Dixon plot of the purified enzyme (NADPH oxidation at […] nm); assay type: biochemical

T1 sequence (A4HSF7 1-491): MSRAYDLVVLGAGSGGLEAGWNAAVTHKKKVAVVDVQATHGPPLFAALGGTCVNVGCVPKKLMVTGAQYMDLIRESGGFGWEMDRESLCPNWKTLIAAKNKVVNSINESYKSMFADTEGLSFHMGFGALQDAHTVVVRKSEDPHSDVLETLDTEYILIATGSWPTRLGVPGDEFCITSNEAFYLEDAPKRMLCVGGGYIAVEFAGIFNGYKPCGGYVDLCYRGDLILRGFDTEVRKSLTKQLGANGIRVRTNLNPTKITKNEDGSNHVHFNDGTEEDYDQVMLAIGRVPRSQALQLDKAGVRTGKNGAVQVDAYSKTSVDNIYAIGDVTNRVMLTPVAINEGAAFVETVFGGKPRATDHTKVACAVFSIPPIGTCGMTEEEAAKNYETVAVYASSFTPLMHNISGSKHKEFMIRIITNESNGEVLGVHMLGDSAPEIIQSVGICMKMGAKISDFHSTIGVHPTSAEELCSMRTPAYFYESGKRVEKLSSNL

Question: How did the “X-ray crystal structure (3.5 Å)” value [1] turn out when `Cc1cc2nc3c(=O)[nH]c(=O)nc-3n(C[C@H](O)[C@H](O)[C@H](O)COP(=O)(O)OP(=O)(O)OC[C@H]3O[C@@H](n4cnc5c(N)ncnc54)[C@H](O)[C@@H]3O)c2cc1C` [FAD] was run?
Answer: Each monomer contains a FAD molecule.

Question: How did the Ki [2] turn out when `CCC(C)Oc1cc(N)nc(Sc2cccc(Cl)c2)n1` (centres unmarked) [RDS 777, 6-(sec-butoxy)-2-((3-chlorophenyl)thio)pyrimidin-4-amine] was run?
Answer: 250 ± 180 nM
